Legend:
[1] = molecular target: T1, S. pneumoniae DSM20566 NA (Streptococcus pneumoniae, UniProt P62575); assay: HA-based NA inhibition assay, S. pneumoniae DSM20566; type: cell-based; conditions: human erythrocytes
T1 construct: host or cells: either rNanA from E. coli BL21(DE3) or total precipitated protein of S. pneumoniae DSM20566

IAV 5258/09 NA = assay: Hemagglutination (HA)-based NA inhibition assay, IAV 5258/09; type: cell-based, influenza A virus A/Jena/5258/2009 (H1N1); conditions: human erythrocytes
[2] = system: S. pneumoniae DSM20566 biofilm; assay: Biofilm inhibition assay; type: cell-based, Streptococcus pneumoniae DSM20566; conditions: for inhibition at 50 µM: Streptococcus pneumoniae, DSM20566, read-out: Inhibition of biofilm formation at the maximum tested concentration; for 50% inhibitory concentration, S. pneumoniae DSM20566 biofilm formation: 24 h, maximum 50 μM
human erythrocytes [3] = type: cell-based; conditions: human erythrocytes, 2 h at 4°C
Procedure: (§1) Viral (whole virus) and bacterial NA activity as well as their inhibition were measured by using a fluorescence (FL) assay with the substrate 2′-(4-methylumbelliferyl)-α-D-N-acetylneuraminic acid sodium salt hydrate (MUNANA, 100 μM; Sigma-Aldrich GmbH, Taufkirchen, Germany), and/or a hemagglutination (HA)-based NA inhibition assay (HA assay) with human erythrocytes (Institute of Transfusion Medicine, University Hospital Jena, Jena, Germany), both assays as published recently (Richter et al., [2015]). Recombinant NanA (rNanA) and total precipitated bacterial protein of S. pneumoniae DSM20566 were used in FL and HA assays. Interference of the compounds with the FL signal (self-fluorescence and quenching) was excluded as described previously (Richter et al., [2015]). […] Each compound was tested at least three times in both NA inhibition assays.
Supplementary Table 1. Assay interference phenomena of test compounds in the HA-based […]
sample concentrations [µM] in viral HA-assay bacterial HA-assay […]
hem- prevention of erythrocyte hem- erythrocyte agglutinationa virus-induced lysisc agglutinationd lysise […]
cTest compounds lysed the human erythrocytes (2 h at 4°C). […]

S. pneumoniae DSM20566 [4] = assay: Microtiter broth microdilution assay, planktonic growth; type: cell-based, Streptococcus pneumoniae DSM20566; conditions: 18 h, maximum 50 μM; for IC50: Streptococcus pneumoniae, DSM20566, read-out: 50% inhibitory concentration, S. pneumoniae DSM20566 planktonic growth
[5] = system: influenza A virus 8178/09; assay: microbe, parasite or virus in culture; type: cell-based, influenza A virus A/Jena/8178/2009 (H1N1); conditions: for IC50: Influenza A virus, MDCK, 48 h, read-out: 50% inhibitory concentration, influenza A virus 8178/09
human erythrocytes [6] = type: cell-based; conditions: human erythrocytes, 4 h at 37°C and 12 h at 4°C
Procedure: as §1
Supplementary Table 1. […]
eTest compounds lysed the human erythrocytes (4 h at 37°C and 12 h at 4°C).

[7] = molecular target: T2, S. pneumoniae DSM20566 NA (NanA) (Streptococcus pneumoniae, UniProt P62575); assay: FL NA inhibition assay, S. pneumoniae DSM20566; type: biochemical; conditions: MUNANA substrate; for IC50: read-out: NA inhibition using FL assay IC50, S. p. DSM20566
T2 construct: host or cells: either rNanA from E. coli BL21(DE3) or total precipitated protein of S. pneumoniae DSM20566

[8] = molecular target: IAV HK/68 NA (whole virus) (Influenza A virus, UniProt Q91MA2); assay: biochemical; set-up: species or system influenza A virus A/Hong Kong/68 (H3N2); conditions: for IC50: NA inhibition using FL assay IC50, IAV HK/68
in vitro = conditions: dog
[9] = molecular target: IAV WSN/33 NA-wt (whole virus) (Influenza A virus, UniProt P03470); assay: biochemical; set-up: species or system influenza A virus A/WSN/1933 (H1N1); conditions: for IC50: NA inhibition using FL assay IC50, IAV WSN/33
[10] = system: 8178/09-, WSN/33-, or HK/68-induced cytopathic effect; assay: CPE inhibition assay (viruses not separated); type: cell-based; conditions: Influenza A virus, MDCK, read-out: IC50 of inhibition of the 8178/09-, WSN/33-, or HK/68-induced cytopathic effect
influenza A virus WSN/33 = assay: microbe, parasite or virus in culture; type: cell-based, influenza A virus A/WSN/1933 (H1N1); conditions: for IC50: Influenza A virus, WSN, MDCK, 48 h, read-out: 50% inhibitory concentration, influenza A virus WSN/33
influenza A virus HK/68 = assay: microbe, parasite or virus in culture; type: cell-based, influenza A virus A/Hong Kong/68 (H3N2); conditions: for IC50: Influenza A virus, MDCK, 48 h, read-out: 50% inhibitory concentration, influenza A virus HK/68
S. pneumoniae DSM20566 [11] = assay: Bactericidal or bacteriostatic activity (subculture on blood agar); type: cell-based, Streptococcus pneumoniae DSM20566; conditions: 0.1 µM

Row | Structure (SMILES) | NA inhibition using HA assay MIC, S. p. DSM20566 [1] | NA inhibition using HA assay MIC, IAV 5258/09 (IAV 5258/09 NA) | inhibition at 50 µM [2] | sample concentrations provoking erythrocyte lysis, viral HA-assay (human erythrocytes [3]) | IC50 (S. pneumoniae DSM20566 [4]) | IC50 [5] | sample concentrations provoking erythrocyte lysis, bacterial HA-assay (human erythrocytes [6]) | IC50 [7] | IC50 [8] | CC50 (in vitro) | NA inhibition using FL assay IC50, IAV WSN/33 [9] | IC50 [10] | IC50 (influenza A virus WSN/33) | IC50 (influenza A virus HK/68) | IC50 [9] | 50% inhibitory concentration, S. pneumoniae DSM20566 biofilm formation [2] | NA inhibition using FL assay IC50, IAV HK/68 [8] | also measured
1 | Cc1ccccc1/N=N/c1ccc(/N=N/c2c(O)ccc3cc(S(=O)(=O)O)ccc23)c(C)c1 [Compound 4] | Not active^c | Not active^c | 46% | no | 12 ± 6.81 µM | 12.1 ± 4.83 µM | 100 µM | 4.79 ± 1.31 µM | 71.1 ± 22 µM | > 100 µM | Not active | < 15 µM | 14 ± 2.68 µM | 13.2 ± 3.11 µM |  |  |  | 
2 | O=S(=O)(O)c1ccc(/N=N/c2ccc(/N=N/c3ccc(O)c4ccccc34)cc2)cc1 [Compound 6] | Not active^c | 24.40 ± 12.47 µM | 46% | no | 6.14 ± 0.61 µM | 10.6 ± 0.71 µM | no | 1.18 ± 0.55 µM | 83.4 ± 3.67 µM | > 100 µM |  | < 15 µM | 24.2 ± 9.78 µM | 20.8 ± 1.99 µM | 36.4 ± 4.2 µM |  |  | 
3 | C[C@@H](O)[C@H]1C(=O)N2C(C(=O)O)=C(SCCN=CN)C[C@H]12 [Imipenem, imipenem, reference compound] |  |  |  |  |  |  |  |  |  |  |  |  |  |  |  |  |  | Activity (bactericidal or bacteriostatic) (S. pneumoniae DSM20566 [11]): bactericidal; cfu per agar plate (S. pneumoniae DSM20566 [11]; 18 h, then subculture): < 150
4 | COc1cc(/N=N/c2ccc(S(=O)(=O)O)cc2)ccc1/N=N/c1c(O)ccc2ccccc12 [Compound 7] | Not active^c | Not active^c | 46% | no | 3.32 ± 0.72 µM | 3.28 ± 2.19 µM | no | 5.6 ± 3.01 µM | 87.2 ± 8.03 µM | > 100 µM |  | < 15 µM | 78.6 ± 16.2 µM | 4.22 ± 0.98 µM | 4.25 ± 1.25 µM |  |  | 
5 | O=[N+]([O-])c1cccc(/N=N/c2c(O)c(S(=O)(=O)O)cc3cc(S(=O)(=O)O)ccc23)c1 [Compound 13] | Not active | Not active |  | no |  |  | no |  |  | > 100 µM | Not active |  |  |  |  | Not active | Not active | 50% inhibitory concentration, S. pneumoniae DSM20566 planktonic growth (S. pneumoniae DSM20566 [4]): Not active; 50% inhibitory concentration, influenza A virus 8178/09 [5]: Not active; NA inhibition using FL assay IC50, S. p. DSM20566 [7]: Not active; 50% inhibitory concentration, influenza A virus WSN/33 (influenza A virus WSN/33): Not active; 50% inhibitory concentration, influenza A virus HK/68 (influenza A virus HK/68): Not active
6 | O=S(=O)(O)c1ccc2c(/N=N/c3ccc(/N=N/c4ccccc4)cc3)c(O)ccc2c1 [Compound 3] | Not active^c | Not active^c |  | no | 20.1 ± 2.24 µM | 14.4 ± 8.16 µM | no | 11.6 ± 0.15 µM |  | > 100 µM | Not active | < 15 µM | 52.2 ± 17.9 µM | 13.6 ± 3.18 µM |  | Not active | Not active | 
